Reference: patent publication US20220193201A1, “GLP-1R AGONIST REDUCES RETINAL INFLAMMATION AND NEURON DEATH SECONDARY TO OCULAR HYPERTENSION” (THE TRUSTEES OF THE UNIVERSITY OF PENNSYLVANIA, priority 2020, published 2022)

What was measured:
NFκB [1] = assay: phospho-NFκB/total NFκB ELISA and NFκBIA (IκBα) qPCR in sorted CD11b+ retinal cells of microbead-injected mice; type: in vivo, mouse; conditions: 42nd day post-injection; CD11b+ CD11c− and CD11b+ CD11c+ cells; NLY01 5 mg/kg s.c. twice weekly vs NSS
Procedure: FIGS. 11A-11D show NLY01 modulates NFκB signaling in CD11b+ CD11c− and CD11b+ CD11c+ cells. Related to FIGS. 4A-4H and 5A-5H. C57BL6/J (WT) mice were injected either with microbeads (“Bead”, left eye), to increase intraocular pressure (IOP), or with BSS (right eye). Following intraocular injections, mice were randomized to twice weekly subcutaneous NLY01 (5 mg kg^−1 per injection) or normal saline solution (NSS). 42 days post-injection mice were euthanized, neurosensory retina (“NSR”) was harvested and sorted as described in FIG. 9A to isolate CD11b+CD11c− and CD11b+ CD11c+ cells. […] All data presented as mean±SEM. Ordinary one-way ANOVA, *p<0.05, **p<0.01, ***p<0.001, ****p<0.0001.
ACSA2+, CD11b+ CD11c−, and CD11b+ CD11c+ cells were isolated from adult murine retinas using the Miltenyi Adult Brain Dissociation Kit (Miltenyi Biotec, 130-107-677) and MACS magnetic cell separation system. […]
ELISA kits were used to measure protein levels of IL-1α (BMS627, Thermofisher Scientific), TNF-α (BMS607-3, Thermofisher Scientific), C1q (LS-F55223-1, LifeSpan BioSciences), C3 (ab157711, Abcam), and phospho-NFκB/total NFκB (Thermofisher Scientific, 50-246-259) according to the manufacturer's protocol. […] Protein levels were determined by comparing the absorbance produced by the samples with that of a calibration curve. […]

[2] = Intraocular pressure (IOP) measurement in microbead-induced ocular hypertension mouse glaucoma model; conditions: NLY01 5 mg/kg s.c. twice weekly vs normal saline; IOP across the study
CD11b+ CD11c+ cells = assay: qPCR of Il1a, Tnf, C1qa mRNA in CD11b+ CD11c+ cells sorted from neurosensory retina of microbead-injected mice; type: in vivo, mouse; conditions: NLY01 5 mg/kg s.c. twice weekly vs NSS
[3] = test system: retinal ganglion cells (RGCs); assay: Retinal ganglion cell counting on retinal flatmounts (Brn3a, Rbpms), microbead eIOP model, subcutaneous NLY01; type: in vivo, mouse; conditions: 42 days; NLY01 5 mg/kg twice weekly vs NSS; bead eye normalized to BSS eye
[4] = cited from earlier work
NFκB [5] = conditions: GLP-1R-dependent manner; cited from earlier work
CD11b+ CD11c− cells = assay: qPCR of Il1a, Tnf, C1qa mRNA in CD11b+ CD11c- cells sorted from neurosensory retina of microbead-injected mice; type: in vivo, mouse; conditions: NLY01 5 mg/kg s.c. twice weekly vs NSS
[6] = test system: ACSA2+ cells (astrocyte and Müller cell enriched); assay: qPCR of pan reactive, A1-specific transcripts and C3 in ACSA2+ retinal cells of microbead-injected mice; type: in vivo, mouse; conditions: NLY01 5 mg/kg s.c. twice weekly vs NSS
[7] = cited from earlier work; remark: listed apart in the source
[8] = mouse model of Parkinson's disease

NLY01: pegylated exendin-4 (exenatide); long-acting GLP-1R agonist, obtained from Neuraly
mRNA levels of IκBα (NFκB [1]): increased | phosphorylated NFκB protein levels (NFκB [1]): decreased | effect on intraocular pressure in microbead- or BSS-injected eyes [2]: no effect | CD11b+ CD11c+ expression of C1q (CD11b+ CD11c+ cells; 14th day post-injection): reduced | CD11b+ CD11c+ expression of IL-1α (CD11b+ CD11c+ cells; 14th day post-injection): reduced | CD11b+ CD11c+ expression of TNF-α (CD11b+ CD11c+ cells; 14th day post-injection): reduced | second cell population (CD11b+ CD11c−) expression of C1q (CD11b+ CD11c+ cells; 42nd day post-injection): reduced | second cell population (CD11b+ CD11c−) expression of IL-1α (CD11b+ CD11c+ cells; 42nd day post-injection): reduced | second cell population (CD11b+ CD11c−) expression of TNF-α (CD11b+ CD11c+ cells; 42nd day post-injection): reduced | RGC death secondary to eIOP, Brn3a+ cell counting [3]: reduced | RGC death secondary to eIOP, RBPMS+ cell counting [3]: reduced | microglia density [4, 8]: reduces | relative IBA1 levels [4, 8]: reduces | A1 astrocyte transformation ([4]; mouse models of PD): blocking | dopaminergic cell death ([4]; mouse models of PD): reducing | microglial production of C1q, TNF-α, and IL-1α ([4]; mouse models of PD): reduce | motor symptoms ([4]; mouse models of PD): improving | nuclear translocation and phosphorylation of NFκB in brain microglia (NFκB [5]): reduce | CD11b+ CD11c− basal expression of C1q (CD11b+ CD11c− cells; 14th day post-injection): without altering | CD11b+ CD11c− basal expression of IL-1a (CD11b+ CD11c− cells; 14th day post-injection): without altering | CD11b+ CD11c− upregulation of TNF-α (CD11b+ CD11c− cells; 14th day post-injection): reduced | CD11b+ CD11c− expression of C1q (CD11b+ CD11c− cells; 42nd day post-injection): reduced | CD11b+ CD11c− expression of IL-1α (CD11b+ CD11c− cells; 42nd day post-injection): reduced | CD11b+ CD11c− expression of TNF-α (CD11b+ CD11c− cells; 42nd day post-injection): reduced | expression of A1-specific transcripts in ACSA2+ fraction ([6]; 14th day post-injection): reduced | expression of C3 in ACSA2+ fraction ([6]; 14th day post-injection): reduced | expression of pan reactive transcripts in ACSA2+ fraction ([6]; 14th day post-injection): reduced | expression of A1-specific transcripts in ACSA2+ fraction ([6]; 42nd day post-injection): reduced | expression of C3 in ACSA2+ fraction ([6]; 42nd day post-injection): reduced | expression of pan reactive transcripts in ACSA2+ fraction ([6]; 42nd day post-injection): reduced | blood-brain barrier penetration ([7]; in vivo): favorable | half-life ([7]; in vivo): extended | NLY01 concentrations in the brain, Parkinson's disease mouse models vs WT animals ([7]; mouse models of Parkinson's disease): higher
